Reference: patent publication US20080255099A1 (priority 2004, published 2008)
Where two headings read alike, the source gives them in different places.

Legend:
[1] = tested on: VEGF promoter; experiment: Luciferase assay for inhibition of the VEGF promoter in Hep3B-VEGF Luciferase cells; assay type: cell-based, human; details: deferoxamine 100 μM, 18-20 h, read-out: IC50 for inhibition of luciferase signal (VEGF promoter)
[2] = molecular target: T1, Biot-Hif-1α^786-826/GST-p300^323/423 (Homo sapiens, UniProt Q09472); experiment: Inhibition of Hif-1α/p300 interaction, DELFIA fluorescence assay; assay type: binding; details: for inhibition of the interaction between Hif-1α and p300 (in words): fluorescency assay adapted from Freedman et al.
T1 construct: the p300 region comprised between the 323-423 aminoacids; made in house; host or cells: E. coli BL21 (DE3), vector pGEX-4T-1
T1 sequence (Q09472 323-423): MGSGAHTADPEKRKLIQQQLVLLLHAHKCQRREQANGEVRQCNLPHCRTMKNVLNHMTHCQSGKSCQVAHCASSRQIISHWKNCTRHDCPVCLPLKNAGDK

[3] = tested on: secreted VEGF; experiment: Secreted VEGF ELISA test in Hep3B-VEGF Luciferase cells under deferoxamine-induced hypoxia; assay type: cell-based, human; details: deferoxamine 100 μM, 18-20 h, read-out: IC50 for inhibition of secreted VEGF (ELISA)
[4] = tested on: HeLa; details: HeLa cells; T. Saito et al. 1985; cited from earlier work
[5] = tested on: tumor growth; details: tumor-bearing mice; Kung et al. 2004; cited from earlier work

gliotoxin
IC50 [1]: 0.05 µM | inhibition of the interaction between Hif-1α and p300 (in words) [2]: able to inhibit the interaction between Hif-1α and p300 | IC50 [3]: 0.2 µM

CN1C(=O)[C@]23SS[C@@]1(CO)C(=O)N2[C@H]1Nc2ccccc2C1([C@@]12c4ccccc4N[C@@H]1N1C(=O)[C@]4(CO)SS[C@]1(C(=O)N4C)[C@H]2O)[C@@H]3O (stereo partly drawn) [11α,11α′-dihydroxy Chaetocin, reference compound]
cytotoxic activity IC50 [4]: about 0.03 μg/mL

CN1C(=O)[C@]2(Cc3cn(C45C[C@@]67SS[C@@](CO)(C(=O)N6[C@H]4Nc4ccccc45)N(C)C7=O)c4ccccc34)SS[C@@]1(CO)C(=O)N2C (stereo partly shown) [chaetomin]
tumor growth and hypoxia-induced transcription in the tumor (in words) [5]: inhibits hypoxia-induced transcription in the tumor and tumor growth

CN1C(=O)[C@@]23CC4([C@]56C[C@@]78SS[C@@](CO)(C(=O)N7[C@H]5Nc5ccccc56)N(C)C8=O)c5ccccc5N[C@@H]4N2C(=O)[C@]1(CO)SS3 (stereo partly shown) [chaetocin]
IC50 ([1]; Homo sapiens): 0.04 µM | cytotoxic activity IC50 [4]: about 0.03 μg/mL | IC50 [2]: 12.5 µM | inhibition of the interaction between Hif-1α and p300 (in words) [2]: able to inhibit the interaction between Hif-1α and p300 | IC50 ([3]; Homo sapiens): 0.1 µM
